Data taken from patent US20190328832A1, “ANTIMICROBIAL COMBINATIONS” (HELPERBY THERAPEUTICS LIMITED, priority 2016, published 2019).

System: log phase NDM-1 Klebsiella Pneumoniae (BAA2473 strain)
Test: Time-kill method over 24 hours against log phase NDM-1 Klebsiella pneumoniae (CFU counts)
Assay type: cell-based
Settings: perphenazine alone at 128 mg/L, FIG. 1
Description: The objective of this example was to test the synergistic effect of perphenazine and colistin (in the form of colistimethate sodium) in combination against log phase NDM-1 Klebsiella Pneumoniae by time-kill methods over a time period of 24 hours. As described hereinabove, time-kill methods are another accepted test for ascertaining the presence or absence of synergy, and involve comparing the dynamic effect of a drug combination with each drug alone when assessing the effect on bacterial log or stationary-growth over time.
Materials and Methods • 1. Bacterial strain used: BAA2473 strain of Klebsiella pneumoniae • 2. Growth of bacteria: Log phase growth of BAA2473 was carried out according to known methods in the art, e.g. SOP R-005-00 Log Phase Growth of Bacteria. • 3. Compound preparation: • i. Perphenazine was ordered from Sigma Aldrich® UK. • ii. Colistin was obtained as Colistimethate sodium (Forest Laboratories UK 1 million I. U. 80 mg). • 4. The overnight culture was diluted with nutrient broth (Oxoid) to […] and 280 μl and 290 ul of the culture was added to each combination well and drug respectively, to make the final concentration of 300 μl. • 5. Incubation of the compounds with the bacterial suspension was carried out for 24 hours. At 0, 2, 4, 7 and 24 hours, CFU counts were performed to measure the kill effects of the drug combination.

OCCN1CCN(CCCN2c3ccccc3Sc3ccc(Cl)cc32)CC1 [perphenazine, 2-[4-[3-(2-chloro-10H-phenothiazin-10-yl)propyl]piperazin-1-yl]ethanol]
effect against NDM-1 K. pneumoniae (time-kill, Log CFU/ml): little or no effect
